Laboratory results from US4772704A, “2,5-disubstituted-4(3H)-pyrimidones having histamine H2 -receptor antagonist activity” (Bristol-Myers Company, priority 1983, dated 1988).

How the values were obtained:
[1] = cited from earlier work
[2] = tested on: histamine-stimulated gastric acid output; experiment: Gastric Antisecretory Activity In The Heidenhain Pouch Dog; type: in vivo, female dogs
Protocol: Determination of Gastric Antisecretory Activity In The Heidenhain Pouch Dog
Prior to surgery, hematology and blood chemistry profiles are obtained and an assessment made as to the general health of selected female dogs. Dogs are vaccinated with Tissue Vax 5 (DHLP--Pitman-Moore) and housed in general animal quarters for four weeks' observation so incipient diseases may become apparent. Dogs are fasted with water ad libitum 24 hours prior to surgery.
Anesthesia is induced with Sodium Pentothal (Abbott) 25-30 mg/kg iv. Subsequent anesthesia is maintained with methoxyflurane (Pitman-Moore). A midline linea alba incision from xiphoid to umbilicus provides good exposure and ease of closure. The stomach is pulled up into the operative field, the greater curvature stretched out at multiple points and clamps placed along the selected line of incision. The pouch is made from the corpus of the stomach so that true parietal cell juice is obtained. About 30% of the corpus volume is resected. The cannula is made of light-weight,biologically-inert material such as nylon or Delrin with dimensions and attachments after DeVito and Harkins (J. Appl. Physiol., 14, 138 (1959). Post operatively, dogs are medicated with antibiotics and an analgesic. They are allowed 2-3 months for recovery. Experiments are carried out in the following way: Dogs are fasted overnight (≈18 hours) with water ad libitum prior to each experiment. The dogs are placed in a sling and a saphenous vein cannulated for drug administration. Histamine as the base (100 μg/kg/hr) and chlorpheniramine maleate (0.25 mg/kg/hr) are infused continuously (in a volume of 6 ml/hr) with a Harvard infusion pump.
Ninety minutes' infusion are allowed for the dogs to reach a steady state of acid output. At this time the drug or normal saline (control) is administered concomitantly with the secretagogue in a volume of 0.5 ml/kg over a 30 second period. When oral studies are to be carried out, the drug is administered via gastric gavage in a volume of 5 ml/kg. Infusion of the secretagogue is continued and 15 minute samples of the gastric juice are taken for 4.5 hours. Each sample is measured to the nearest 0.5 ml and titratable acidity is determined by titrating a 1 ml sample to pH 7.0 with 0.2N NaOH, using an Autoburet and an electrometric pH meter (Radiometer). Titratable acid output is calculated in microequivalents by multiplying the volume in milliliters by the acid concentration in milliequivalents per liter.
Results are expressed as percent inhibition relative to control readings and the response is the average for five dogs at that dose level.

histamine H2-receptor [3] = settings: relative to burimamide or metiamide; cited from earlier work
gastric acid secretion = experiment: Gastric Antisecretory Activity in the Gastric Fistula Rat; type: in vivo, Male Long Evans rats; settings: sc
Protocol: Determination of Gastric Antisecretory Activity in the Gastric Fistula Rat Male Long Evans rats weighing about 240-260 grams at the time of cannula implantation are used. […] The fistula components are designed and the operative procedure is carried out exactly as described in the above reference. Post operatively the animals are individually housed in solid bottom cages with sawdust and are allowed food and water ad libitum throughout the entire recovery period. Animals are not used for test purposes for at least 15 days after the operative procedure. The animals are fasted but allowed water ad libitum for 20 hours before the testing procedure is to begin. […] The catheter is then screwed into the cannula in place of the plugging screw and the rat is placed in a clear plastic rectangular cage measuring 40 cm long, 15 cm wide and 13 cm high. The bottom of the cage has a slit approximately 1.5 cm wide and 25 cm long running down the center to accommodate the catheter which hangs through it. […] Chem. Path. […] Titratable acid output is calculated in microequivalents by multiplying the volume in milliliters by the acid concentration in milliequivalents per liter. Results are expressed as percent inhibition relative to control readings. Dose response curves are constructed and ED50 values are calculated by regression analyses. […]

histamine H2-receptor [4] = settings: man; cited from earlier work

SMILES: CNC(=S)NCCCCc1cnc[nH]1 [Burimamide]
- oral absorption [1]: poor

SMILES: CNC(=NC#N)NCCSCc1nc[nH]c1C [Cimetidine, reference compound]
- % Maximum Inhibition ([2]; Intravenous, dose 6.0 μmoles/kg, Heidenhain pouch dog): 94%
- % Maximum Inhibition ([2]; Oral, dose 12.0 μmoles/kg, Heidenhain pouch dog): 95%
- potency or effectiveness as histamine H2-antagonist, relative (histamine H2-receptor [3]): as effective an histamine H2 -antagonist as metiamide

SMILES: Nc1cnc(NCCCOc2cccc(CN3CCCCC3)c2)[nH]c1=O [Example 2, 5-Amino-2-[3-(3-piperidinomethylphenoxy)propylamino]-4(3H)-pyrimidone]
- ED50 (gastric acid secretion): 0.15 µmol/kg
- Potency Ratio [cimetidine = 1.0] (gastric acid secretion; cimetidine = 1.0): 26
- % Maximum Inhibition ([2]; Intravenous, single dose 0.094 μmoles/kg, 5 dogs): 90%
- Potency Ratio [cimetidine = 1.0] ([2]; Intravenous): 50
- % Maximum Inhibition ([2]; Oral, single dose 0.5 μmoles/kg, 5 dogs): 86%
- Potency Ratio [cimetidine = 1.0] ([2]; Oral): 20
- duration of antisecretory action relative to cimetidine ([2]; both the intravenous and oral dog models): prolonged duration of action relative to cimetidine

SMILES: CNC(=S)NCCSCc1nc[nH]c1C [Metiamide]
- potency or effectiveness as histamine H2-antagonist, relative (histamine H2-receptor [3]): more potent than burimamide
- oral activity (histamine H2-receptor [4]): orally active in man
